The subject of this data set is Zein. Kind of data set: Zein test (skin compatibility: nitrogen solubilised from zein by surfactant solution, micro-Kjeldahl). On the set-up: species or system Mais. Particulars: 20 %ig surfactant solution, pH 7; 40 ml with 2 g Zein, 1 Stunde, 35° C; lower Zein number = better skin compatibility. From the text:
Zur Bestimmung der Hautfreundlichkeit der erfindungsgemäßen neuartigen Tenside wurde der Zein-Test durchgeführt. Als Testprodukt diente das Neutralisationsprodukt von Fettalkohol-C12-C14-ether-monoschwefelsäureester mit circa 2 Mol Ethylenoxid mit N-ß-Hydroxyethyl-N-methyl- glucamin (Produkt A). Als Vergleichssubstanzen dienten Nonylbenzolsulfonat (Na-Salz), Natriumlaurylsulfat und Natrium-Fettalkohol-C12-C14-ethersulfat mit 2-Ethylenoxidgruppen im Molekül.
Die bei dem Zeintest erhaltene Zeinzahl gibt an, wieviel mg Stickstoff in 100 ml einer Tensidlösung enthalten sind, wenn diese 1 Stunde lang bei 35° C mit 2 g Zein versetzt wird. Je niedriger die Zeinzahl, um so besser ist die Hautverträglichieit des Produktes. Der Zein-Test wird in der nachfolgend beschriebenen Weise durchgeführt:
1. Ansetzen der Stammlösunsen:
Die 1/20 n Natronlauge wird mit Benzoesäure (DAB 6) eingestellt. Dazu werden circa 40 bis 50 mg Benzoesäure in einen 100 ml Erlenmeyerkolben eingewogen. und in ungefähr 25 ml neutralisiertem Ethylalkohol gelöst. Zum Neutralisieren wird der Alkohol mit einigen Tropfen verdünnter Natronlauge gegen Phenolphthalein bis zur bleibenden Rosafärbung versetzt. Die gelöste Benzoesäure wird nun mit der 1/20 n Natronlauge bis zur bleibenden Rosafärbung titriert und der Faktor berechnet: [drawing 2]
1.2. Schwefelsäure 1/20 n
Aus einer Mikrobürette läßt man 10 ml der 1/20 n Schwefelsäure in einen 100 ml Erlenmeyerkolben einlaufen, gibt 5 Tropfen Tashiro-Indikator hinzu und bringt die Vorlage am Destillierapparat an. In den Destillierkolben gibt man 20 ml 25 %ige Natronlauge, verdünnt mit destilliertem Wasser bis zur Hälfte des Volumens und destilliert 7 bis 10 Minuten. Die Vorlage wird nun abgenommen, und, nachdem mit etwas destilliertem Wasser das in Schwefelsäure eintauchende Glasrohr abgespült wurde, titriert man mit 1/20 n Natronlauge von violett auf blaugrün. Der erhaltene Wert ist der Blind-_ wert, der auch gleichzeitig eine Kontrolle des Destillier-Apparates ist und regelmäßig bestimmt wird. Diese Zahl wird der Berechnung des Stickstoffgehaltes zugrunde gelegt.
[…] Methylrot in 300 ml Ethanol und 0,40 g Methylenblau in 400 ml 50 %igem Ethanol.
1.4. 25 %ige Natronlauge aus NaOH-Plätzchen.
1.5. Das zu prüfende Tensid wird als x-prozentige Lösung mit destilliertem Wasser angesetzt und auf pH 7 eingestellt.
2. Aufbereitung des Zein:
Das verwendete Zein aus Mais (MG 20.000 - 30.000; ~98,5 % Protein) wird im Vakuumtrockenschrank bei maximal 40° C bis zur Gewichtskonstanz getrocknet.
3. Durchführung des Tests:
In eine 50 ml-Enghalsflasche mit Schraubverschluß werden 40 ml Tensidlösung pipettiert und in einem Wasserbad auf 35° C temperiert. […]

Molecule `CCCCCCCCCCCCOS(=O)(=O)O` [Natriumlaurylsulfat] had a Zein-Zahl of 535 mg Stickstoff in 100 ml.

In the case of “Natrium-Fettalkohol-C12-C14-ethersulfat mit 2-Ethylenoxidgruppen im Molekül [Fettalkohol-C12-C14-ethersulfat mit 2 EO]”, the Zein-Zahl worked out at 329 mg Stickstoff in 100 ml.

On to “Neutralisationsprodukt aus N-β-Hydroxyethyl-N-methylglucamin und Fettalkohol-C12-C14-ethermonoschwefelsäureester mit circa 2 Mol Ethylenoxid”, for which the Zein-Zahl turned out to be 223 mg Stickstoff in 100 ml.

As to Nonylbenzolsulfonat (Na-Salz), the Zein-Zahl is given as 620 mg Stickstoff in 100 ml.

Source of the values: EP0039860A1, “Surfactants, their preparation and their use in cosmetic cleansing compositions, and cosmetic cleansing compositions mild to the skin containing them” (Henkel Kommanditgesellschaft auf Aktien, priority 1980, dated 1981).
